Values of other authors, collected in article PMC2898477, “High-quality crystals of human haematopoietic prostaglandin D synthase with novel inhibitors” (2010).

Target: T1, haematopoietic prostaglandin D synthase (H-PGDS) (Homo sapiens, UniProt O60760)
T1 construct: gene HPGDS
Assay: co-crystallization and X-ray diffraction of the complex ([…] Å, P1); IC50 cited from Aritake et al. […]
Assay type: biochemical

T1 sequence (O60760 whole entry): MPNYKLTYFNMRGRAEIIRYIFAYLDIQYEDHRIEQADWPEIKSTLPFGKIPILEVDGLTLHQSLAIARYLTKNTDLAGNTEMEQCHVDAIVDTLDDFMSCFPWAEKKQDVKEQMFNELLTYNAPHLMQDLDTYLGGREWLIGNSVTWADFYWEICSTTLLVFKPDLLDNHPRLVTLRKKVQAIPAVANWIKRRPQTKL

- IC50: 5.9 µM
Compound: c1ccc(C(OC2CCN(CCCc3nnn[nH]3)CC2)c2ccccc2)cc1 [HQL-79, 4-benzhydryloxy-1-[3-(1H-tetrazol-5-yl)-propyl]-piperidine]
